# Measured values as given in patent US9351974B2, “Substituted pteridinones for the treatment of cancer” (OSI Pharmaceuticals, LLC, priority 2011, dated 2016).
# Target: T1, His-tagged full-length RSK2 (RPS6KA3) (Homo sapiens, UniProt P51812)
# T1 construct: His-tagged full-length RSK2 (RPS6KA3, Invitrogen PV3323); His; purchased Invitrogen PV3323
# Test: RSK2 Omnia Assay for compound IC50 determination
# Assay type: biochemical
# Conditions: ATP 15 μM, n=2, read-out: Mean RSK2 Biochem IC50
# Outline: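 Initial-rate slopes from continuous kinetic reads were fitted to a four-parameter equation for IC50 (n=2). Ki was then derived by Cheng-Prusoff assuming ATP-competitive inhibition. Reactions contained 15 μM ATP (Km 16.3 μM), 5 μM Omnia ST Peptide 6, and […] in 50 mM HEPES pH 7.5, 10 mM MgCl2, 1 mM DTT, 1% DMSO. Compounds spanned 11 threefold steps, […] final.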
# T1 sequence (P51812 whole entry): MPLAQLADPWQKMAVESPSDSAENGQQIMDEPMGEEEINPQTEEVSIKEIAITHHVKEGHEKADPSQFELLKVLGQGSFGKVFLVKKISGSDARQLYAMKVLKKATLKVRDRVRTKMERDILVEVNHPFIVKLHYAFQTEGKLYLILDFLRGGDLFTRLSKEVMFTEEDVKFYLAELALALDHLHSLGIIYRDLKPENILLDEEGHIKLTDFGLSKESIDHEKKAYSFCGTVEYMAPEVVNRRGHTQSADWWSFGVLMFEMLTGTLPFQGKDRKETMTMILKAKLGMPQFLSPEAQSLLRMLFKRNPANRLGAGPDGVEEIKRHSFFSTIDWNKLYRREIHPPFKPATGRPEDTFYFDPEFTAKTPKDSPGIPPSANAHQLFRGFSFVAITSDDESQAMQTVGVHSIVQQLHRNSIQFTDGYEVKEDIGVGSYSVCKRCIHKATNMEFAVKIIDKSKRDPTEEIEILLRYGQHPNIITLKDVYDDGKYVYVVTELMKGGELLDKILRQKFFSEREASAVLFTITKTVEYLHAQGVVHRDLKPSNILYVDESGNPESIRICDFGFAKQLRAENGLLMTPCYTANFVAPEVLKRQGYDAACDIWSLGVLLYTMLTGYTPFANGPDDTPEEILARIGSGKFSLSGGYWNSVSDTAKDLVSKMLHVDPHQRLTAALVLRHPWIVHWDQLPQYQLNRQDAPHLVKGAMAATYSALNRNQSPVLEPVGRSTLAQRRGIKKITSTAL
row,Compound,IC50
1,"C[C@@H]1C(=O)N(c2cccnc2)c2cnc(Nc3ccc4[nH]ncc4c3F)nc2N1C1CCCCC1 [compound 122, (7R)-8-cyclohexyl-2-[(4-fluoro-1H-indazol-5-yl)amino]-7-methyl-5-(pyridin-3-yl)-7,8-dihydropteridin-6(5H)-one]",≤ 100 nM
2,"COc1ccc(N2C(=O)[C@@H](C)N(C3CCCCC3)c3nc(Nc4ccc5[nH]ncc5c4)ncc32)cc1OC [compound 111, (7R)-8-cyclohexyl-5-(3,4-dimethoxyphenyl)-2-(1H-indazol-5-ylamino)-7-methyl-7,8-dihydropteridin-6(5H)-one]",≤ 100 nM
3,"C[C@@H]1C(=O)N(c2ccc(OC(F)(F)F)cc2)c2cnc(Nc3ccc4[nH]ncc4c3)nc2N1C1CCCCC1 [Example 33, (7R)-8-cyclohexyl-2-(1H-indazol-5-ylamino)-7-methyl-5-[4-(trifluoromethoxy)phenyl]-7,8-dihydropteridin-6(5H)-one]",100 to 1000 nM
4,"CC(C)CCn1c(=O)c(=O)n(-c2ccccc2)c2cnc(Nc3ccc4c(c3)CC(=O)N4)nc21 [Example 306, 8-(3-methylbutyl)-2-[(2-oxo-2,3-dihydro-1H-indol-5-yl)amino]-5-phenyl-5,8-dihydropteridine-6,7-dione]",> 1000 nM
5,"CNC(=O)c1cccc(N2C(=O)[C@@H](C)N(C3CCCCC3)c3nc(Nc4ccc5[nH]ncc5c4)ncc32)c1 [Example 46, 3-[(7R)-8-cyclohexyl-2-(1H-indazol-5-ylamino)-7-methyl-6-oxo-7,8-dihydropteridin-5(6H)-yl]-N-methylbenzamide]",≤ 100 nM
6,C[C@@H]1C(=O)N(c2cccc(C#N)c2)c2cnc(Nc3ccc(CO)cc3)nc2N1C1CCCCC1 [compound 171],≤ 100 nM
7,"C[C@@H]1C(=O)N(c2cccc(C#N)c2)c2cnc(Nc3ccccc3)nc2N1C1CCCCC1 [compound 156, 3-[(7R)-8-cyclohexyl-7-methyl-6-oxo-2-(phenylamino)-7,8-dihydropteridin-5(6H)-yl]benzonitrile]",100 to 1000 nM
8,"COc1ccc(N2C(=O)[C@@H](C)N([C@H]3CC[C@H](C)CC3)c3nc(Nc4ccc5[nH]c(=O)oc5c4)ncc32)cc1C#N [compound 244, 2-methoxy-5-[(7R)-7-methyl-8-(trans-4-methylcyclohexyl)-6-oxo-2-[(2-oxo-2,3-dihydro-1,3-benzoxazol-6-yl)amino]-7,8-dihydropteridin-5(6H)-yl]benzonitrile]",≤ 100 nM
9,"C[C@@H]1C(=O)N(c2cccc(C#N)c2)c2cnc(Nc3ccc4[nH]ncc4c3)nc2N1C1CCC(F)(F)CC1 [compound 261, 3-[(7R)-8-(4,4-difluorocyclohexyl)-2-(1H-indazol-5-ylamino)-7-methyl-6-oxo-7,8-dihydropteridin-5(6H)-yl]benzonitrile]",≤ 100 nM
10,"COc1ccc(N2C(=O)[C@@H](C)N(CCC(C)C)c3nc(Nc4cc(F)c5[nH]ncc5c4)ncc32)cc1C#N [Example 91, 5-[(7R)-2-[(7-fluoro-1H-indazol-5-yl)amino]-7-methyl-8-(3-methylbutyl)-6-oxo-7,8-dihydropteridin-5(6H)-yl]-2-methoxybenzonitrile]",≤ 100 nM
11,"C[C@@H]1C(=O)N(c2cccc(N(C)C)c2)c2cnc(Nc3ccc4[nH]ncc4c3)nc2N1C1CCCCC1 [Example 44, (7R)-8-cyclohexyl-5-[3-(dimethylamino)phenyl]-2-(1H-indazol-5-ylamino)-7-methyl-7,8-dihydropteridin-6(5H)-one]",≤ 100 nM
12,"C[C@@H]1C(=O)N(c2cccc(F)c2)c2cnc(Nc3cc(F)c4[nH]ncc4c3)nc2N1C1CCC(C)(C)CC1 [Example 211, (7R)-8-(4,4-dimethylcyclohexyl)-2-[(7-fluoro-1H-indazol-5-yl)amino]-5-(3-fluorophenyl)-7-methyl-7,8-dihydropteridin-6(5H)-one]",≤ 100 nM
13,"COc1ccc(N2C(=O)[C@@H](C)N(C3CCOCC3)c3nc(Nc4ccc5[nH]nc(F)c5c4)ncc32)cc1OC [compound 187, (7R)-5-(3,4-dimethoxyphenyl)-2-[(3-fluoro-1H-indazol-5-yl)amino]-7-methyl-8-(tetrahydro-2H-pyran-4-yl)-7,8-dihydropteridin-6(5H)-one]",≤ 100 nM

# Now from value to molecule:
row,IC50,Compound
1,≤ 100 nM,"COc1ccc(N2C(=O)[C@@H](C)N(C3CCOCC3)c3nc(Nc4ccc5[nH]c(=O)oc5c4)ncc32)cc1C#N [compound 197, 2-Methoxy-5-[(7R)-7-methyl-6-oxo-2-[(2-oxo-2,3-dihydro-1,3-benzoxazol-6-yl)amino]-8-(tetrahydro-2H-pyran-4-yl)-7,8-dihydropteridin-5(6H)-yl]benzonitrile]"
2,≤ 100 nM,"CCOc1ccc(N2C(=O)[C@@H](C)N(C3CCOCC3)c3nc(Nc4ccc5[nH]c(=O)oc5c4)ncc32)cc1C#N [compound 198, 2-Ethoxy-5-[(7R)-7-methyl-6-oxo-2-[(2-oxo-2,3-dihydro-1,3-benzoxazol-6-yl)amino]-8-(tetrahydro-2H-pyran-4-yl)-7,8-dihydropteridin-5(6H)-yl]benzonitrile]"
3,≤ 100 nM,"CO[C@H]1CC[C@H](N2c3nc(Nc4cc(F)c5[nH]ncc5c4)ncc3N(c3ccc(N4CCN(C)CC4)nc3)C(=O)[C@H]2C)CC1 [compound 233, (7R)-2-[(7-fluoro-1H-indazol-5-yl)amino]-8-(trans-4-methoxycyclohexyl)-7-methyl-5-[6-(4-methylpiperazin-1-yl)pyridin-3-yl]-7,8-dihydropteridin-6(5H)-one]"
4,≤ 100 nM,"CO[C@H]1CC[C@@H](N2c3nc(Nc4cc(F)c5[nH]ncc5c4)ncc3N(c3cccnc3)C(=O)[C@H]2C)CC1 [compound 227, (7R)-2-[(7-fluoro-1H-indazol-5-yl)amino]-8-(cis-4-methoxycyclohexyl)-7-methyl-5-(pyridin-3-yl)-7,8-dihydropteridin-6(5H)-one]"
5,≤ 100 nM,"COc1ccc(N2C(=O)[C@@H](C)N(CCC(C)C)c3nc(Nc4cc(F)c5[nH]c(=O)oc5c4)ncc32)cc1OC [Example 88, (7R)-5-(3,4-dimethoxyphenyl)-2-[(4-fluoro-2-oxo-2,3-dihydro-1,3-benzoxazol-6-yl)amino]-7-methyl-8-(3-methylbutyl)-7,8-dihydropteridin-6(5H)-one]"
6,≤ 100 nM,"C[C@@H]1C(=O)N(c2cccc(C#N)c2)c2cnc(Nc3ccc(S(N)(=O)=O)cc3)nc2N1C1CCC(F)(F)CC1 [compound 273, 4-{[(7R)-5-(3-cyanophenyl)-8-(4,4-difluorocyclohexyl)-7-methyl-6-oxo-5,6,7,8-tetrahydropteridin-2-yl]amino}benzenesulfonamide]"
7,≤ 100 nM,"C[C@@H]1C(=O)N(c2cccnc2)c2cnc(Nc3cc(F)c4[nH]ncc4c3)nc2N1[C@H]1CC[C@@H](C(F)(F)F)CC1 [compound 255, (7R)-2-[(7-fluoro-1H-indazol-5-yl)amino]-7-methyl-5-(pyridin-3-yl)-8-[cis-4-(trifluoromethyl)cyclohexyl]-7,8-dihydropteridin-6(5H)-one]"
8,≤ 100 nM,"C[C@@H]1C(=O)N(c2ccc[n+]([O-])c2)c2cnc(Nc3cc(F)c4[nH]ncc4c3)nc2N1C1CCC(C)(C)CC1 [compound 304, (7R)-8-(4,4-dimethylcyclohexyl)-2-[(7-fluoro-1H-indazol-5-yl)amino]-7-methyl-5-(1-oxidopyridin-3-yl)-7,8-dihydropteridin-6(5H)-one]"
9,≤ 100 nM,"C[C@@H]1C(=O)N(c2cccc(C#N)c2)c2cnc(Nc3cc(F)c4[nH]ncc4c3F)nc2N1C1CCCCC1 [compound 130, 3-[(7R)-8-cyclohexyl-2-[(4,7-difluoro-1H-indazol-5-yl)amino]-7-methyl-6-oxo-7,8-dihydropteridin-5(6H)-yl]benzonitrile]"
10,≤ 100 nM,"C[C@@H]1C(=O)N(c2cccc(C#N)c2)c2cnc(Nc3ccc4[nH]ncc4c3F)nc2N1C1CCCCC1 [compound 100, 3-[(7R)-8-cyclohexyl-2-[(4-fluoro-1H-indazol-5-yl)amino]-7-methyl-6-oxo-7,8-dihydropteridin-5(6H)-yl]benzonitrile]"
11,≤ 100 nM,"CNS(=O)(=O)c1ccc(N2C(=O)[C@@H](C)N(C3CCCCC3)c3nc(Nc4ccc5[nH]ncc5c4)ncc32)cc1 [Example 37, 4-[(7R)-8-cyclohexyl-2-(1H-indazol-5-ylamino)-7-methyl-6-oxo-7,8-dihydropteridin-5(6H)-yl]-N-methylbenzenesulfonamide]"
12,≤ 100 nM,"COc1ccc(N2C(=O)[C@@H](C)N([C@H]3CC[C@H](C(F)(F)F)CC3)c3nc(Nc4cc(F)c5[nH]ncc5c4)ncc32)cc1OC [compound 258, (7R)-5-(3,4-dimethoxyphenyl)-2-[(7-fluoro-1H-indazol-5-yl)amino]-7-methyl-8-[trans-4-(trifluoromethyl)cyclohexyl]-7,8-dihydropteridin-6(5H)-one]"
13,≤ 100 nM,C[C@@H]1C(=O)N(c2cccc(C#N)c2)c2cnc(Nc3ccc4c(c3)CNC4=O)nc2N1C1CCCCC1 [compound 161]
14,≤ 100 nM,"Cc1ccc(N2C(=O)[C@@H](C)N(C3CCCCC3)c3nc(Nc4ccc5[nH]ncc5c4)ncc32)cn1 [compound 113, (7R)-8-cyclohexyl-2-(1H-indazol-5-ylamino)-7-methyl-5-(6-methylpyridin-3-yl)-7,8-dihydropteridin-6(5H)-one]"
15,≤ 100 nM,"COc1ccc(N2C(=O)[C@@H](C)N([C@H]3CC[C@H](OC)CC3)c3nc(Nc4cc(F)c5[nH]ncc5c4)ncc32)cc1OC [compound 225, (7R)-5-(3,4-dimethoxyphenyl)-2-[(7-fluoro-1H-indazol-5-yl)amino]-8-(trans-4-methoxycyclohexyl)-7-methyl-7,8-dihydropteridin-6(5H)-one]"
16,≤ 100 nM,"C[C@@H]1C(=O)N(c2cccc(C#N)c2)c2cnc(Nc3cc(F)c4[nH]ncc4c3)nc2N1C1CCC(F)(F)CC1 [Example 260, 3-[(7R)-8-(4,4-difluorocyclohexyl)-2-[(7-fluoro-1H-indazol-5-yl)amino]-7-methyl-6-oxo-7,8-dihydropteridin-5(6H)-yl]benzonitrile]"
